PMC10287695, “Non-covalent inhibitors of thioredoxin glutathione reductase with schistosomicidal activity in vivo” (Nature Communications, 2023)
Values joined by “and” are separate entries in the source; they are usually repeats but may differ in a detail not shown here. Identical values can stand only once.

Experiments:
[1] = system: TGR in newly transformed schistosomula (NTS); assay: TGR inhibition in NTS with TRFS-Green fluorescent probe; type: cell-based, S. mansoni; settings: for TRFS-Green fluorescence in NTS: 2 h with inhibitor (30 µM; AF 3 µM) then TRFS-Green 10 µM; for production of green fluorescent dye in TRFS-green assay: compound at 5 µM
Protocol: TGR inhibition in NTS was assessed using a fluorescent probe TRFS-Green (Medchemexpress)[43]. NTS prepared as previously described and cultured in M199 supplemented with 5.5 mM D-glucose, penicillin-streptomycin and 5% heat inactivated fetal bovine serum were incubated at 37 °C in a clear bottom flat well plate in a 5% CO2 incubator overnight. […] NTS were further treated with TRFS-Green (10 µM) for additional 4 h and rinsed with M199 medium to remove residual TRFS-Green. Fluorescence images were obtained using Keyence BZ-X800. The quantification of fluorescence intensity upon the uptake of TRFS-Green by NTS was performed by a fluorescent microplate imager (BioTek Cytation3) (excitation, 438 nm; emission, 538 nm) hourly for 5 h and after 24 h.

[2] = molecular target: T1, TGR (Schistosoma mansoni, UniProt Q962Y6); assay: NADPH dependence of inhibition; type: biochemical; design: unit not given here; settings: panel b, replicates; for Rate, no NADPH: preincubation no NADPH; for Rate, with NADPH: preincubation with NADPH
T1 construct: made in house
T1 sequence (Q962Y6 1-598): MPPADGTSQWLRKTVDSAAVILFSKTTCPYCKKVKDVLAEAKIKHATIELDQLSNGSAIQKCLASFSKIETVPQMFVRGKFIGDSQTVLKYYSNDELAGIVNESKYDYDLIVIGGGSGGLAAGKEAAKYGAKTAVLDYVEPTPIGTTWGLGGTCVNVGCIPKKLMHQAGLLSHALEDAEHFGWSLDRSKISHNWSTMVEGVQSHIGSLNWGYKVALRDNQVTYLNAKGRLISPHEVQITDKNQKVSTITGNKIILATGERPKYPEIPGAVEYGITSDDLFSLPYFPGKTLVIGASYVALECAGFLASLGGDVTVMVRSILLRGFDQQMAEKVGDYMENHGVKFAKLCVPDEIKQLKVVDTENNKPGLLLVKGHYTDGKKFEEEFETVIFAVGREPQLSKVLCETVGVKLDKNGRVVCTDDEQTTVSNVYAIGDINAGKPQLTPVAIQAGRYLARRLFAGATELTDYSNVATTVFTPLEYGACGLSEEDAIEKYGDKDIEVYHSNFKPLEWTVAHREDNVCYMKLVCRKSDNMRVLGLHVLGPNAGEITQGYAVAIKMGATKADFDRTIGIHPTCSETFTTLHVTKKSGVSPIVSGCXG
Protocol: TGR was incubated at room temperature with inhibitor in the presence or absence of 100 µM NADPH for 15 min. DTNB (3 mM) and NADPH (100 µM) were added, and the reaction was monitored at A412 for 5 min to determine reaction rate. The assay was done in triplicate.

[3] = molecular target: T2, TGR (Schistosoma mansoni, UniProt Q962Y6, X597U); assay: NADPH consumption (oxidase activity); type: biochemical, S. mansoni; settings: replicates
T2 construct: made in house
Protocol: TRi-1, Stattic (both at 50 µM) and AF (20 µM) were incubated with 1 ml of 500 nM TGR and 100 µM NADPH in TGR reaction buffer for 30 min. The samples were desalted using a Zeba spin desalting column (Thermo Fisher Scientific) and 100 µl of the desalted sample was combined with 100 µl of 100 µM NADPH. NADPH consumption was monitored at 340 nm in triplicate. Compounds 1, 4, 6, and 7 (50 µM) were tested in the same fashion without the desalting step and with a first incubation step of 30 min for 6 and 7 and 2 h for 1 and 4.

[4] = molecular target: T2, TGR; assay: Superoxide production (pyrogallol red); type: biochemical, S. mansoni; settings: replicates
Protocol: The production of superoxide by TGR was determined by monitoring reaction of superoxide with pyrogallol red[80]. Briefly, a 1 ml reaction mix (500 nM TGR, 100 µM NADPH, and 20–50 µM inhibitor) was incubated at room temperature for 30 min for fast inhibitors, or 2 h for slow inhibitors. For irreversible inhibitor controls TRi-1 (synthesized in house as reported[45]), Stattic (Cayman Chemical), and AF (Cayman Chemical), the samples were desalted using a Zeba spin desalting column. 100 µL of sample was combined with pyrogallol buffer with and without superoxide dismutase (SOD) (50 µM pyrogallol red, 300 µM NADPH; ± 10 units SOD). The reaction was measured at A340 and A540 simultaneously for 2 h.

[5] = system: S. mansoni adult worms in mice; assay: Schistosomicidal efficacy in infected mice, adult worms (42 d.p.i.); type: in vivo; settings: for Egg burden, Treated, individual mice / Worm burden, Treated, individual mice: Adult worm; for Egg burden, Treated, individual mice: eggs per 50 mg liver (Fig. 6); for decrease in egg burden / decrease in worm burden: mice
Protocol: (§1) To assess the efficacy of the compounds in vivo against juvenile and adult worms, five female Swiss-Webster mice were randomly assigned for the control and experiment groups using a randomization tool embedded in GraphPad Prism. Mice were percutaneously exposed for 1 h to about 80 S. mansoni cercariae. Three- and six-weeks post infection, respectively, for juvenile and adult worms, mice were treated depending on their weight with formulations of the compounds, while the control mice received only the vehicle. Compounds were formulated with 10% DMSO and 10% Tween-80, and vortexed to obtain a uniform mixture. The mixture was sonicated twice for 5 min each time using a digital ultrasonic cleaner heated to 50 °C. Sodium chloride 0.9% (80% normal saline) was added to the mixture, briefly vortexed and sonicated one more time using the same conditions as previous. The investigators were blinded by which group of mice received a treatment and the vehicle, as injection was done by technicians from the Comparative Research Center of Rush University Medical Center. Using a 26 G, 3/8 in intradermal bevel needle, each mouse was administered intraperitoneally with 100 µl of the formulated compound suspension at 50 mg/kg, 100 mg/kg and 200 mg/kg. Mice treated three weeks post infection for juvenile worms were euthanized three weeks post treatment and mice treated six weeks post infection were euthanized one week post treatment with 0.018 ml of Euthasol and 5.85 mg/ml heparin and perfused. The mesenteric and hepatic portal veins of the mice were carefully scanned under the microscope to extract any remaining S. mansoni adult worms and worm burdens were determined. Egg burden was determined by weighing 50 mg of liver tissue from each of treated and control mice. The liver tissues were digested with 5% KOH at 37 °C overnight and washed twice with PBS. The number of eggs per 50 mg of liver tissue was determined using a Keyence BZ-X800 microscope using the egg autofluorescence.

[6] = system: S. mansoni juvenile worms in mice; assay: Schistosomicidal efficacy in infected mice, juvenile worms (21 d.p.i.); type: in vivo; settings: for Egg burden, Treated, individual mice / Worm burden, Treated, individual mice: Juvenile worm; for Egg burden, Treated, individual mice: eggs per 50 mg liver (Fig. 6); for decrease in egg burden / decrease in worm burden: mice
Protocol: as §1

[7] = second of the two columns per substance (condition not given)
[8] = 1 x 100 mg/kg, listed as 9VP173
[9] = 1 x 200 mg/kg, listed as 9VP173
[10] = 1 x 100 mg/kg i.p. at 42 d.p.i.
[11] = 1 x 200 mg/kg i.p. at 42 d.p.i.
[12] = 1 x 100 mg/kg, listed as 8VP101
[13] = 2 x 50 mg/kg i.p. at 42 and 45 d.p.i.
[14] = 1 x 100 mg/kg at 21 d.p.i. (juvenile worms)
[15] = 2 x 100 mg/kg i.p. (1: bid at 42 d.p.i.; 6: at 42 and 45 d.p.i.)
[16] = 2 x 100 mg/kg at 21 d.p.i. (juvenile worms)

## Cc1oc(C2CCCCC2)nc1C(=O)N[C@@H]1C[C@@H]2C[C@H]([C@H]1C)C2(C)C [Compound 7]
[1]
  TRFS-Green fluorescence in NTS: significant decreases in fluorescence
[2]
  Rate, no NADPH: 0.05983 and 0.05966 and 0.05987
  Rate, with NADPH: 0.003086 and 0.003742 and 0.002131
[3]
  NADPH consumption (rate/ΔOD340): -0.0008479 and -0.0008204 and -0.0008408
[4]; condition not given
  Superoxide production, Pyrogallol red consumption monitored ΔA540: -0.0001477 and -0.0001374 and -0.0001423
[4]; [7]
  Superoxide production, Pyrogallol red consumption monitored ΔA540: -5.501e-5 and -2.739e-5 and -2.749e-5

## Cc1oc(C2CCCCC2)nc1CN[C@@H]1C[C@@H]2C[C@H]([C@H]1C)C2(C)C [Compound 4]
[1]
  TRFS-Green fluorescence in NTS: significant decreases in fluorescence
[3]
  NADPH consumption (rate/ΔOD340): -0.0007477 and -0.0007112 and -0.0007089
[4]; condition not given
  Superoxide production, Pyrogallol red consumption monitored ΔA540: -0.0003594 and -0.0003266 and -0.0002925
[4]; [7]
  Superoxide production, Pyrogallol red consumption monitored ΔA540: -3.468e-5 and -5.202e-5

## C[C@@H]1[C@H]2C[C@@H](C[C@H]1NCc1nc3ccccc3n1C)C2(C)C [Compound 12]
[1]
  TRFS-Green fluorescence in NTS: negligible effects

## C[C@@H]1[C@H]2C[C@@H](C[C@H]1NCc1nc3ccccc3n1C1CCCCCC1)C2(C)C [Compound 8]
[1]
  TRFS-Green fluorescence in NTS: significant decreases in fluorescence
[2]
  Rate, no NADPH: 0.045 and 0.0455
  Rate, with NADPH: 0.006 and 0.0015 and 0.0024
[5]; [8]
  Egg burden, Treated, individual mice: 2302 and 2373 and 2391 and 2292 and 2275
  Worm burden, Treated, individual mice: 24 and 25 and 21 and 15
[5]; [9]
  Egg burden, Treated, individual mice: 2221 and 2235 and 2223 and 2217 and 2241
  Worm burden, Treated, individual mice: 24 and 29 and 27 and 28 and 23
[5]; [10]
  decrease in egg burden: 2.1%
  decrease in worm burden: 13.5%
[5]; [11]
  decrease in egg burden: 7% and 6.8%
  decrease in worm burden: 19% and 18.9%

## CCc1ccccc1-c1nc(CN[C@@H]2C[C@@H]3C[C@H]([C@H]2C)C3(C)C)c(C)o1 [Compound 2]
[1]
  TRFS-Green fluorescence in NTS: significant decreases in fluorescence
  production of green fluorescent dye in TRFS-green assay: abolished
[5]; [12]
  Egg burden, Treated, individual mice: 296 and 301 and 311 and 299 and 321
  Worm burden, Treated, individual mice: 8 and 6 and 4 and 5
[5]; 2 x 50 mg/kg, listed as 8VP101
  Egg burden, Treated, individual mice: 319 and 335 and 372 and 393 and 436
  Worm burden, Treated, individual mice: 5 and 10 and 8 and 4 and 3
[5]; [10]
  decrease in egg burden: 73% and 73.3%
  decrease in worm burden: 85% and 85.2%
[5]; [13]
  decrease in egg burden: 69% and 68.8%
  decrease in worm burden: 43% and 42.9%
[6]; [12]
  Egg burden, Treated, individual mice: 986 and 1201 and 968 and 1001 and 988
  Worm burden, Treated, individual mice: 12 and 13 and 11 and 8
[6]; Schistosoma mansoni, 504 h, based on the single dose tested, 21 d.p.i., read-out: estimated ED50 against juvenile worms
  ED50: < 100 mg/kg
[6]; [14]
  decrease in egg burden: 56.7% and 57%
  decrease in worm burden: 61.3% and 61% and > 60%

## Cc1oc(-c2ccc3c(c2)OCO3)nc1CN[C@@H]1C[C@@H]2C[C@H]([C@H]1C)C2(C)C [Compound 1]
[1]
  TRFS-Green fluorescence in NTS: significant decreases in fluorescence
  production of green fluorescent dye in TRFS-green assay: abolished
[3]
  NADPH consumption (rate/ΔOD340): -0.000815 and -0.0007737 and -0.0007308
[4]; condition not given
  Superoxide production, Pyrogallol red consumption monitored ΔA540: -0.0003735 and -0.0003395 and -0.0002315
[4]; [7]
  Superoxide production, Pyrogallol red consumption monitored ΔA540: -9.411e-5 and -9.234e-5 and -8.721e-5
[5]; 1 x 100 mg/kg, listed as 8VP70
  Egg burden, Treated, individual mice: 1302 and 1436 and 1582 and 1478 and 1434
  Worm burden, Treated, individual mice: 15 and 16 and 12
[5]; 2 x 100 mg/kg, listed as 8VP70
  Egg burden, Treated, individual mice: 1572 and 1426 and 1565 and 1335 and 1329
  Worm burden, Treated, individual mice: 12 and 10 and 9 and 8
[5]; [10]
  decrease in egg burden: 40% and 40.5%
  decrease in worm burden: 44% and 43.5%
[5]; [15]
  decrease in egg burden: 48% and 47.5%
  decrease in worm burden: 54% and 53.6%
[6]; 2 x 100 mg/kg, listed as 8VP70
  Egg burden, Treated, individual mice: 1567 and 1683 and 1698 and 1583 and 1670
  Worm burden, Treated, individual mice: 21 and 22 and 19 and 20
[6]; [16]
  decrease in egg burden: 31%
  decrease in worm burden: 28.2% and 28%

## CC(=O)OC[C@H]1O[C@@H]([S-])[C@H](OC(C)=O)[C@@H](OC(C)=O)[C@@H]1OC(C)=O.CCP(CC)CC.[Au+] [AF, auranofin, reference compound]
[1]
  TRFS-Green fluorescence in NTS: significant decreases in fluorescence
[3]
  NADPH consumption (rate/ΔOD340): -0.0002869 and -0.0002715 and -0.0002247
[4]; condition not given
  Superoxide production, Pyrogallol red consumption monitored ΔA540: -0.0001303 and -1.372e-5
[4]; [7]
  Superoxide production, Pyrogallol red consumption monitored ΔA540: -0.0001254 and 0.0001668
